Results as given in PubChem BioAssay AID1259407 (Chemical Carcinogenesis Research Information System (CCRIS), 2018).
Calls of active or inactive are those of the source. The rule behind the calls is not given here.

Tested on: CCRIS mutagenicity, Ames/micronucleus/aberration tests
Assay: CCRIS mutagenicity studies

Compound: Nc1ccccc1C(=O)OC/C=C/c1ccccc1
- mutagenic call (End Point: IN VITRO CHROMOSOMAL ABERRATIONS, Test System: CHINESE HAMSTER LUNG FIBROBLAST CELLS (CHL/IU), Metabolic Activation: NONE): inactive; negative
- mutagenic call (End Point: IN VITRO CHROMOSOMAL ABERRATIONS, Test System: CHO CELLS, Metabolic Activation: NONE): inactive; negative
- mutagenic call (End Point: IN VITRO CHROMOSOMAL ABERRATIONS, Test System: CHO CELLS, Metabolic Activation: RAT, LIVER, S-9, AROCLOR 1254): inactive; negative
- mutagenic call (Test System: AMES SALMONELLA TYPHIMURIUM, Strain/Indicator: TA97, Metabolic Activation: HAMSTER, LIVER, S-9, AROCLOR 1254 (10%), Method: PREINCUBATION): inactive; negative
- mutagenic call (Test System: AMES SALMONELLA TYPHIMURIUM, Strain/Indicator: TA97, Metabolic Activation: HAMSTER, LIVER, S-9, AROCLOR 1254 (30%), Method: PREINCUBATION): inactive; negative
- mutagenic call (Test System: AMES SALMONELLA TYPHIMURIUM, Strain/Indicator: TA97, Metabolic Activation: NONE, Method: PREINCUBATION): inactive; negative
- mutagenic call (Test System: AMES SALMONELLA TYPHIMURIUM, Strain/Indicator: TA97, Metabolic Activation: RAT, LIVER, S-9, AROCLOR 1254 (10%), Method: PREINCUBATION): inactive; negative
- mutagenic call (Test System: AMES SALMONELLA TYPHIMURIUM, Strain/Indicator: TA97, Metabolic Activation: RAT, LIVER, S-9, AROCLOR 1254 (30%), Method: PREINCUBATION): inactive; negative
- mutagenic call (Test System: AMES SALMONELLA TYPHIMURIUM, Strain/Indicator: TA98, Metabolic Activation: HAMSTER, LIVER, S-9, AROCLOR 1254 (10%), Method: PREINCUBATION): inactive; negative
- mutagenic call (Test System: AMES SALMONELLA TYPHIMURIUM, Strain/Indicator: TA98, Metabolic Activation: HAMSTER, LIVER, S-9, AROCLOR 1254 (30%), Method: PREINCUBATION): inactive; negative
- mutagenic call (Test System: AMES SALMONELLA TYPHIMURIUM, Strain/Indicator: TA98, Metabolic Activation: NONE, Method: PREINCUBATION): inactive; negative
- mutagenic call (Test System: AMES SALMONELLA TYPHIMURIUM, Strain/Indicator: TA98, Metabolic Activation: RAT, LIVER, S-9, AROCLOR 1254 (10%), Method: PREINCUBATION): inactive; negative
- mutagenic call (Test System: AMES SALMONELLA TYPHIMURIUM, Strain/Indicator: TA98, Metabolic Activation: RAT, LIVER, S-9, AROCLOR 1254 (30%), Method: PREINCUBATION): inactive; negative
- mutagenic call (Test System: AMES SALMONELLA TYPHIMURIUM, Strain/Indicator: TA100, Metabolic Activation: HAMSTER, LIVER, S-9, AROCLOR 1254 (10%), Method: PREINCUBATION): inactive; negative
- mutagenic call (Test System: AMES SALMONELLA TYPHIMURIUM, Strain/Indicator: TA100, Metabolic Activation: HAMSTER, LIVER, S-9, AROCLOR 1254 (30%), Method: PREINCUBATION): inactive; negative
- mutagenic call (Test System: AMES SALMONELLA TYPHIMURIUM, Strain/Indicator: TA100, Metabolic Activation: NONE, Method: PREINCUBATION): inactive; negative
- mutagenic call (Test System: AMES SALMONELLA TYPHIMURIUM, Strain/Indicator: TA100, Metabolic Activation: RAT, LIVER, S-9, AROCLOR 1254 (10%), Method: PREINCUBATION): inactive; negative
- mutagenic call (Test System: AMES SALMONELLA TYPHIMURIUM, Strain/Indicator: TA100, Metabolic Activation: RAT, LIVER, S-9, AROCLOR 1254 (30%), Method: PREINCUBATION): inactive; negative
- mutagenic call (Test System: AMES SALMONELLA TYPHIMURIUM, Strain/Indicator: TA1535, Metabolic Activation: HAMSTER, LIVER, S-9, AROCLOR 1254 (10%), Method: PREINCUBATION): inactive; negative
- mutagenic call (Test System: AMES SALMONELLA TYPHIMURIUM, Strain/Indicator: TA1535, Metabolic Activation: HAMSTER, LIVER, S-9, AROCLOR 1254 (30%), Method: PREINCUBATION): inactive; negative
- mutagenic call (Test System: AMES SALMONELLA TYPHIMURIUM, Strain/Indicator: TA1535, Metabolic Activation: NONE, Method: PREINCUBATION): inactive; negative
- mutagenic call (Test System: AMES SALMONELLA TYPHIMURIUM, Strain/Indicator: TA1535, Metabolic Activation: RAT, LIVER, S-9, AROCLOR 1254 (10%), Method: PREINCUBATION): inactive; negative
- mutagenic call (Test System: AMES SALMONELLA TYPHIMURIUM, Strain/Indicator: TA1535, Metabolic Activation: RAT, LIVER, S-9, AROCLOR 1254 (30%), Method: PREINCUBATION): inactive; negative
- mutagenic call (Test System: E. COLI, Strain/Indicator: WP2 UVRA, Metabolic Activation: HAMSTER, LIVER, S-9, AROCLOR 1254, Method: STANDARD PLATE): inactive; negative
- mutagenic call (Test System: E. COLI, Strain/Indicator: WP2 UVRA, Metabolic Activation: NONE, Method: STANDARD PLATE): inactive; negative
- mutagenic call (Test System: Mouse lymphoma, Strain/Indicator: L5178Y (tk+/tk-), Metabolic Activation: None, Method: Suspension/plate): inactive; negative
- mutagenic call (Test System: Mouse lymphoma, Strain/Indicator: L5178Y (tk+/tk-), Metabolic Activation: Rat, Liver, S-9, Aroclor 1254, Method: Suspension/plate): active; equivocal (previous evaluation positive)
- mutagenic call (Test System: UDS RAT HEPATOCYTES, Strain/Indicator: BROMODEOXYURIDINE INCORP, Metabolic Activation: NONE, Method: FLOW CYTOMETRIC ANALYSIS): inactive; negative
- mutagenic call (Test System: UDS RAT HEPATOCYTES, Strain/Indicator: THY INCORP, Metabolic Activation: NONE, Method: AUTORADIOGRAPHY): inactive; negative
